Laboratory results taken from US11266655B2, “Methods and compositions for treating urea cycle disorders” (Camp4 Therapeutics Corporation, priority 2019, dated 2022).
Several values for one entry are separate records, joined by “and”; a condition that tells them apart may be missing. Equal entries are not always repeated. Where two headings read alike, the source gives them in different places.

What was measured:
CPS1 [1] = experiment: RNA-seq of compound-treated primary human hepatocytes, CPS1 expression; assay type: cell-based; conditions: primary human hepatocytes; for Relative CPS1 level vs Untreated (±Standard Deviation): triplicate (Table 19, FIG. 11); for CPS1 expression, Fold change (Log 2) vs untreated: RNA-seq
ARG1 = experiment: RNA-seq of compound-treated primary human hepatocytes, ARG1 expression; assay type: cell-based; conditions: primary human hepatocytes; for Relative ARGI level vs Untreated (±Standard Deviation): triplicate (Table 17, FIG. 9); for Fold change (Log 2) vs untreated, ARG1 expression: RNA-seq (Table 7)
CPS1 [2] = experiment: JAK inhibitors at 0.3 and 3 μM in primary human hepatocytes, CPS1 mRNA fold change; assay type: cell-based; conditions: fold change vs DMSO
Method: (§1) Additional small molecules that inhibit JAK1, JAK2, JAK3, or a combination of the JAK proteins were tested in primary human hepatocytes as described in Example 2. JAK inhibitors were tested in triplicate at 0.3 μM and 3 μM. The results are shown as the fold change (mRNA FC) in the mRNA levels of OTC and CPS1 genes after treatment compared to an untreated control (DMSO) and the standard deviation (SD).

OTC = experiment: JAK inhibitors at 0.3 and 3 μM in primary human hepatocytes, OTC mRNA fold change; assay type: cell-based; conditions: fold change vs DMSO
Method: as §1

NAGS = assay type: cell-based, human
urea cycle genes = experiment: RNA-seq of primary human hepatocytes, compounds that modulate multiple urea cycle-related genes; assay type: cell-based; conditions: primary human hepatocytes, RNA-seq; for Up-regulated Genes: urea cycle-related genes significantly increased (Table 10)
ASS1 = experiment: RNA-seq of compound-treated primary human hepatocytes, ASS1 expression; assay type: cell-based; conditions: primary human hepatocytes, RNA-seq (Table 4)
SLC25A15 = experiment: RNA-seq of compound-treated primary human hepatocytes, SLC25A15 expression; assay type: cell-based; conditions: primary human hepatocytes, RNA-seq (Table 8)

## O=C(NCCCNc1nc(Nc2cccc(NC(=O)N3CCCC3)c2)ncc1I)c1cccs1 [BX795]
CPS1 [1]; 3 μM
  Relative CPS1 level vs Untreated (±Standard Deviation): 1.75 ± 1.03
ARG1; 3 μM
  Relative ARGI level vs Untreated (±Standard Deviation): 1.33 ± 0.43
ARG1; 10 μM
  Relative ARGI level vs Untreated (±Standard Deviation): 1.34 ± 0.41

## CC[C@@](C)(Nc1ccnc(-c2c[nH]c3ncccc23)n1)C(=O)NCC(F)(F)F [Decernotinib]
CPS1 [2]; 0.3 uM
  CPS1 mRNA FC: 1.07
CPS1 [2]; 3 uM
  CPS1 mRNA FC: 1.28
OTC; 0.3 uM
  OTC mRNA FC: 1.01
OTC; 3 uM
  OTC mRNA FC: 2.18

## CCS(=O)(=O)N1CCN(c2ccc(Nc3ncc(C(N)=O)c(NC4CC4)n3)cc2)CC1 [cerdulatinib]
CPS1 [2]; 0.3 uM
  CPS1 mRNA FC: 1.58
CPS1 [2]; 3 uM
  CPS1 mRNA FC: 2.39
OTC; 0.3 uM
  OTC mRNA FC: 2.56
OTC; 3 uM
  OTC mRNA FC: 1.89

## CCn1c(C(=O)N(C2CC2)C2CC2)cc2c3c(ncn3C)c(Nc3cc(C)n(C)n3)nc21 [BMS-911543]
CPS1 [2]; 0.3 uM
  CPS1 mRNA FC: 1.31 and 1.03
CPS1 [2]; 3 uM
  CPS1 mRNA FC: 1.65
OTC; 0.3 uM
  OTC mRNA FC: 1.94
OTC; 3 uM
  OTC mRNA FC: 2.7

## O=C1CCC(N2C(=O)c3ccccc3C2=O)C(=O)N1 (stereo not shown) [Thalidomide]
NAGS; primary human hepatocytes, RNA-seq (Table 6)
  Fold change (Log 2) vs untreated, NAGS expression: 1.1 Log 2
Urea cycle genes
  number of urea cycle genes whose expression was significantly up-regulated: five
  Up-regulated Genes: NAGS, CPS1, ALS, OTC, ARG1

## Cc1cc(Nc2cc(CN3CCOCC3)c3nc(C)c(Cc4ccc(Cl)cc4F)n3n2)n[nH]1 [LY2784544/gandotinib]
CPS1 [2]; 0.3 uM
  CPS1 mRNA FC: 1.11
CPS1 [2]; 3 uM
  CPS1 mRNA FC: 1.39
OTC; 0.3 uM
  OTC mRNA FC: 1.19
OTC; 3 uM
  OTC mRNA FC: 1.63

## NC(=O)c1ccc(I)c([N+](=O)[O-])c1 [Iniparib]
NAGS; 0.3 μM, primary human hepatocytes, triplicate (Table 21, FIG. 13)
  Relative NAGS level vs Untreated (±Standard Deviation): 1.41 ± 0.00
CPS1 [1]; 3 μM
  Relative CPS1 level vs Untreated (±Standard Deviation): 1.44 ± 0.01
ARG1; 3 μM
  Relative ARGI level vs Untreated (±Standard Deviation): 1.32 ± 0.15

## C[C@]12CC[C@H]3[C@@H](CCC4=CC(=O)CC[C@@]43C)[C@@H]1CC[C@@H]2C(=O)CO [Deoxycorticosterone]
CPS1 [1]
  CPS1 expression, Fold change (Log 2) vs untreated: 3.79 Log 2
ARG1
  Fold change (Log 2) vs untreated, ARG1 expression: 1.37 Log 2
ASS1
  Fold change (Log 2) vs untreated, ASS1 expression: 0.6 Log 2
Urea cycle genes
  number of urea cycle genes whose expression was significantly up-regulated: four
  Up-regulated Genes: CPS1, ASS1, ARG1, SLC25A15

## S=C(NCc1ccc2c(c1)OCO2)N1CCN(c2ncnc3c2oc2ccccc23)CC1 [Amuvatinib]
CPS1 [1]; 10 μM
  Relative CPS1 level vs Untreated (±Standard Deviation): 2.07 ± 0.42
ARG1; 10 μM
  Relative ARGI level vs Untreated (±Standard Deviation): 1.71 ± 0.19
ARG1
  Fold change (Log 2) vs untreated, ARG1 expression: 2.5 Log 2
ASS1
  Fold change (Log 2) vs untreated, ASS1 expression: 0.69 Log 2
Urea cycle genes
  number of urea cycle genes whose expression was significantly up-regulated: five
  Up-regulated Genes: CPS1, ASS1, ASL, OTC, ARG1

## Cc1cc(C(=O)NOCCO)c(Nc2ccc(I)cc2F)n(C)c1=O [AZD8330]
CPS1 [1]; 0.3 μM
  Relative CPS1 level vs Untreated (±Standard Deviation): 1.33 ± 0.03
CPS1 [1]; 3 μM
  Relative CPS1 level vs Untreated (±Standard Deviation): 1.60 ± 0.24

B1: GDF10 (BMP3b): member of the BMP family and the TGF-B superfamily (protein, UniProt P55107 369-478, looked up)
Growth/differentiation factor …: QWDEPRVCSRRYLKVDFADIGWNEWIISPKSFDAYYCAGACEFPMPKIVRPSNHATIQSIVRAVGIIPGIPEPCCVPDKMNSLGVLFLDENRNVVLKVYPNMSVDTCACR
CPS1 [1]
  CPS1 expression, Fold change (Log 2) vs untreated: 1.66 Log 2

B2: GDF2 (BMP9): member of BMP family and the TGF-B superfamily (protein, UniProt Q9UK05 320-429, looked up)
Growth/differentiation factor …: SAGAGSHCQKTSLRVNFEDIGWDSWIIAPKEYEAYECKGGCFFPLADDVTPTKHAIVQTLVHLKFPTKVGKACCVPTKLSPISVLYKDDMGVPTLKYHYEGMSVAECGCR
NAGS
  Fold change (Log 2) vs untreated, NAGS expression: 0.63 Log 2
SLC25A15
  Fold change (Log 2) vs untreated, SLC25A15 expression: 1.09 Log 2
CPS1 [1]
  CPS1 expression, Fold change (Log 2) vs untreated: 3.46 Log 2
ARG1
  Fold change (Log 2) vs untreated, ARG1 expression: 1.79 Log 2
ASS1
  Fold change (Log 2) vs untreated, ASS1 expression: 1.34 Log 2
Urea cycle genes
  number of urea cycle genes whose expression was significantly up-regulated: five
  Up-regulated Genes: ASS1, CPS1, NAGS, ARG1, SLC25A15
